Reference: ChEMBL document CHEMBL1201862, “PubChem BioAssay data set” (2004)
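Cultured in 96-well plates, cells were exposed to test compound for 48 hours across five concentrations. GI50 is the concentration that inhibits growth by half.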 Calls of active or inactive are those of the source. No stated cut-off is given here; in the data, active = GI50 up to about 1.1 µM and inactive = higher.

Assays:
Assay in all cases: NCI tumour cell line growth inhibition, 48 h
OVCAR-4 = test system: OVCAR-4
SK-OV-3 = test system: SK-OV-3
SN12C = test system: SN12C
Malme-3M = test system: Malme-3M
SF-268 = test system: SF-268
SK-MEL-5 = test system: SK-MEL-5
A549 = test system: A549
UACC-257 = test system: UACC-257
MDA-MB-231 = test system: MDA-MB-231
M14 = test system: M14
OVCAR-8 = test system: OVCAR-8
NCI-H460 = test system: NCI-H460
SK-MEL-2 = test system: SK-MEL-2
HCT-116 = test system: HCT-116
HCT-15 = test system: HCT-15
NCI-H522 = test system: NCI-H522
UO-31 = test system: UO-31
OVCAR-3 = test system: OVCAR-3
ACHN = test system: ACHN
HCC 2998 = test system: HCC 2998

SMILES | GI50 (OVCAR-4) | GI50 (SK-OV-3) | GI50 (SN12C) | GI50 (Malme-3M) | GI50 (SF-268) | GI50 (SK-MEL-5) | GI50 (A549) | GI50 (UACC-257) | GI50 (MDA-MB-231) | GI50 (M14) | GI50 (OVCAR-8) | GI50 (NCI-H460) | GI50 (SK-MEL-2) | GI50 (HCT-116) | GI50 (HCT-15) | GI50 (NCI-H522) | GI50 (UO-31) | GI50 (OVCAR-3) | GI50 (ACHN) | GI50 (HCC 2998)
Cc1cc(C)nc(NS(=O)(=O)c2ccc(NC(=O)c3ccc4nc5ccccc5c(Nc5ccc(S(N)(=O)=O)cc5)c4c3)cc2)n1 | 83.8 µM (inactive) | > 100 µM (inactive) | > 100 µM (inactive) | 93.3 µM (inactive) | > 100 µM (inactive) | > 100 µM (inactive) | > 100 µM (inactive) | > 100 µM (inactive) | 94.2 µM (inactive) | > 100 µM (inactive) | > 100 µM (inactive) | > 100 µM (inactive) | 42.9 µM (inactive) | > 100 µM (inactive) | > 100 µM | 34.2 µM (inactive) | > 100 µM (inactive) | 48.5 µM (inactive) | > 100 µM (inactive) | > 100 µM (inactive)
Oc1cc(-c2cccc(OCc3ccccc3)c2)nc2cc3c(cc12)OCO3 | 2.81 µM (inactive) | 0.342 µM (active) | 0.378 µM (active) | 0.621 µM (active) | 8.34 µM (inactive) | 0.247 µM (active) | 0.871 µM (active) | 14.7 µM (inactive) | 0.605 µM (active) | 0.311 µM (active) | 0.339 µM (active) | 0.292 µM (active) | 0.301 µM (active) | 0.346 µM (active) | 0.376 µM | 0.268 µM (active) | 0.502 µM (active) | 0.304 µM (active) | 3.71 µM (inactive) | 0.298 µM (active)
C=CCc1cc(-c2cc(CC=C)c(O)c(CN(CCCl)CCCl)c2)cc(CN(CCCl)CCCl)c1O | 17.6 µM (inactive) | 18.9 µM (inactive) | 9.68 µM (inactive) | 18.7 µM (inactive) | 12.7 µM (inactive) | 16.8 µM (inactive) | 13.7 µM (inactive) | 16 µM (inactive) | 18.6 µM (inactive) | 15.4 µM (inactive) | 12.1 µM (inactive) | 3.79 µM (inactive) | 22.1 µM (inactive) | 11.1 µM (inactive) | 15.5 µM | 10.9 µM (inactive) | 16.3 µM (inactive) | 15.2 µM (inactive) | 7.69 µM (inactive) | 15.6 µM (inactive)
COc1ccc2c(c1)CCc1c-2n(CCN2CCCCC2)c2ccc(OC)cc12 | > 100 µM (inactive) | > 100 µM (inactive) | > 100 µM (inactive) | > 100 µM (inactive) | > 100 µM (inactive) | > 100 µM (inactive) | > 100 µM (inactive) | > 100 µM (inactive) | > 100 µM (inactive) | > 100 µM (inactive) | 92 µM (inactive) | > 100 µM (inactive) | > 100 µM (inactive) | > 100 µM (inactive) | > 100 µM | 61.5 µM (inactive) | > 100 µM (inactive) | > 100 µM (inactive) | > 100 µM (inactive) | > 100 µM (inactive)
OC(CC(O)(C(F)(F)F)C(F)(F)F)C(O)c1ccco1 (centres undefined) | > 10 µM (inactive) | > 10 µM (inactive) | > 10 µM (inactive) | > 10 µM (inactive) | > 10 µM (inactive) | > 10 µM (inactive) | > 10 µM (inactive) | > 10 µM (inactive) | > 10 µM (inactive) | > 10 µM (inactive) | > 10 µM (inactive) | > 10 µM (inactive) | > 10 µM (inactive) | > 10 µM (inactive) | > 10 µM | > 10 µM (inactive) | > 10 µM (inactive) | > 10 µM (inactive) | > 10 µM (inactive) | > 10 µM (inactive)
CSc1c(C#N)c(O)n(-c2ccc(Cl)cc2)c(=O)c1C#N | > 100 µM (inactive) | > 100 µM (inactive) | > 100 µM (inactive) | > 100 µM (inactive) | > 100 µM (inactive) | > 100 µM (inactive) | 80.4 µM (inactive) | > 100 µM (inactive) | > 100 µM (inactive) | > 100 µM (inactive) | > 100 µM (inactive) | > 100 µM (inactive) | > 100 µM (inactive) | 63.5 µM (inactive) | 97.9 µM | 40.5 µM (inactive) | 72.9 µM (inactive) | > 100 µM (inactive) |  | > 100 µM (inactive)
